Columns and labels:
Assay type in all cases: cell-based
C. tropicalis ATCC 750 = conditions: C. tropicalis ATCC 750; read at 50% growth inhibition for echinocandins (24 h), 100% for amphotericin B (48 h)
Method: (§1) MIC and MEC assays were run as described in Example 31 with the following exceptions. Starting solutions of all antifungal agents were prepared in 100% DMSO. Stock concentrations were made at 50× the highest final assay concentration and serially diluted 2-fold, 16 times in a 96-well PCR plate (VWR 83007-374). Candida and Aspergillus suspensions from Sabouraud dextrose agar plate cultures were prepared in 0.85% saline at 0.5 McFarland standard (˜0.1 OD530 nm). Candida suspensions were diluted 1:500 in RPMI (MP Biomedicals, cat no. 1060124; buffered with MOPS and adjusted with NaOH to pH 7.0) to a concentration of ˜0.5-2.5×10^3 CFU/mL and Aspergillus suspensions were diluted 1:50 in RPMI to 0.4-5×10^4 CFU/mL final concentration. 98 μL of each cell suspension in RPMI were added to test wells in a 96-well assay plate (Costar cat. no. 3370). A Beckman Multimek 96 liquid handling robot was used to dispense 2 μL of each 50× stock compound into the plate containing 98 μL of each strain in RPMI (2% final solvent concentration). Plates were shaken then incubated at 35° C. for 24-48 h prior to reading. MIC values were read visually at 50% growth inhibition for echinocandins (24 h) and at 100% growth inhibition for amphotericin B (48 h). MEC values (24 h) were read with the aid of a microscope at the lowest echinocandin concentration where rounded/compact hyphal morphology was observed.

C. albicans ATCC 90028 = conditions: C. albicans ATCC 90028; read at 50% growth inhibition for echinocandins (24 h), 100% for amphotericin B (48 h)
Method: as §1

C. glabrata ATCC 90030 = conditions: C. glabrata ATCC 90030; read at 50% growth inhibition for echinocandins (24 h), 100% for amphotericin B (48 h)
Method: as §1

[1] = system: C. parapsilosis ATCC 22019; conditions: C. parapsilosis ATCC 22019; read at 50% growth inhibition for echinocandins (24 h), 100% for amphotericin B (48 h)
Method: as §1

C. krusei ATCC 14243 = conditions: C. krusei ATCC 14243; read at 50% growth inhibition for echinocandins (24 h), 100% for amphotericin B (48 h)
Method: as §1

A. niger ATCC 16404 = experiment: MEC assay (Example 32); conditions: MEC values (24 h), rounded/compact hyphal morphology
Method: as §1

A. fumigatus ATCC 13073 = experiment: MEC assay (Example 32); conditions: MEC values (24 h), rounded/compact hyphal morphology
Method: as §1

A. fumigatus MYA-4609 = experiment: MEC assay (Example 32); conditions: MEC values (24 h), rounded/compact hyphal morphology
Method: as §1

A. fumigatus MYA-3626 = experiment: MEC assay (Example 32); conditions: MEC values (24 h), rounded/compact hyphal morphology
Method: as §1

A. flavus ATCC MYA-3631 = experiment: MEC assay (Example 32); conditions: MEC values (24 h), rounded/compact hyphal morphology
Method: as §1

Substance: caspofungin acetate [reference compound]
- MIC (C. tropicalis ATCC 750): 0.125 µg/mL
- MIC (C. albicans ATCC 90028): 0.125 µg/mL
- MIC (C. glabrata ATCC 90030): 0.25 µg/mL
- MIC [1]: 0.5 µg/mL
- MIC (C. krusei ATCC 14243): 0.25 µg/mL
- MEC (A. niger ATCC 16404): 0.06 µg/mL
- MEC (A. fumigatus ATCC 13073): 0.03 µg/mL
- MEC (A. fumigatus MYA-4609): 0.06 µg/mL
- MEC (A. fumigatus MYA-3626): 0.06 µg/mL
- MEC (A. flavus ATCC MYA-3631): 0.06 µg/mL
